Laboratory results from PubChem BioAssay AID2060484 (Molecular Pharmacology Branch, DTP, NCI, 2025).

System: SUM149PT spheroids with HUVEC/MSC, viability
Experiment: Anticancer human tumor SUM149PT cell line growth inhibition [GQUAD];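 note: spheroids exposed to drugs for seven days before readout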;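 for viability, T/C: percent viability relative to DMSO vehicle control taken as 100%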
Conditions: for IC50: curve of first compound; for viability, T/C: stronger effect = lower value
In short: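 Tumor cells were grown as complex spheroids with HUVEC endothelial cells and mesenchymal stem cells as stroma. G-quadruplex stabilizers were combined with targeted agents over half-log dilutions from near the clinical Cmax, or from 10 microM.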

[1] = second compound 0.0316 µM, first compound 0.0316 µM
[2] = second compound 0.0316 µM, first compound 0.1 µM
[3] = second compound 0.0316 µM, first compound 0.316 µM
[4] = second compound 0.0316 µM, first compound 1 µM
[5] = second compound 0.0316 µM, first compound 3.16 µM
[6] = second compound 0.0316 µM, first compound 10 µM
[7] = second compound 0.1 µM, first compound 0.0316 µM
[8] = second compound 0.1 µM, first compound 0.1 µM
[9] = second compound 0.1 µM, first compound 0.316 µM
[10] = second compound 0.1 µM, first compound 1 µM
[11] = second compound 0.1 µM, first compound 3.16 µM
[12] = second compound 0.1 µM, first compound 10 µM
[13] = second compound 0.316 µM, first compound 0.0316 µM
[14] = second compound 0.316 µM, first compound 0.1 µM
[15] = second compound 0.316 µM, first compound 0.316 µM
[16] = second compound 0.316 µM, first compound 1 µM
[17] = second compound 0.316 µM, first compound 3.16 µM
[18] = second compound 0.316 µM, first compound 10 µM
[19] = second compound 1 µM, first compound 0.0316 µM
[20] = second compound 1 µM, first compound 0.1 µM
[21] = second compound 1 µM, first compound 0.316 µM
[22] = second compound 1 µM, first compound 1 µM
[23] = second compound 1 µM, first compound 3.16 µM
[24] = second compound 1 µM, first compound 10 µM
[25] = second compound 3.16 µM, first compound 0.0316 µM
[26] = second compound 3.16 µM, first compound 0.1 µM
[27] = second compound 3.16 µM, first compound 0.316 µM
[28] = second compound 3.16 µM, first compound 1 µM
[29] = second compound 3.16 µM, first compound 3.16 µM
[30] = second compound 3.16 µM, first compound 10 µM
[31] = second compound 10 µM, first compound 0.0316 µM
[32] = second compound 10 µM, first compound 0.1 µM
[33] = second compound 10 µM, first compound 0.316 µM
[34] = second compound 10 µM, first compound 1 µM
[35] = second compound 10 µM, first compound 3.16 µM
[36] = second compound 10 µM, first compound 10 µM

In the case of `O=c1[nH]cc(F)c(=O)[nH]1` + Cc1[nH]c2ccc(F)cc2c1-c1nc2c3cccnc3c3ncccc3c2[nH]1, the IC50 (second compound 0.0316 µM) is reported as 7.57 µM, the IC50 (second compound 0.1 µM) is reported as 6.93 µM and the IC50 (second compound 0.316 µM) is reported as over 10 µM. For the same compound, the IC50 (second compound 1 µM) was 7.58 µM, the IC50 (second compound 3.16 µM) was 5.27 µM and the IC50 (second compound 10 µM) was 3.52 µM. The viability, T/C [1] was 103%, the viability, T/C [2] was 97.3% and the viability, T/C [3] was 107%. It also gave a viability, T/C [4] of 95.6%, a viability, T/C [5] of 57.8% and a viability, T/C [6] of 47.5%. For the same compound, the viability, T/C [7] was 104%, the viability, T/C [8] was 101% and the viability, T/C [9] was 108%. For the same compound, the viability, T/C [10] was 111%, the viability, T/C [11] was 58.3% and the viability, T/C [12] was 46.1%. The viability, T/C [13] was 99.6%, the viability, T/C [14] was 104% and the viability, T/C [15] was 97.7%. It also gave a viability, T/C [16] of 102%, a viability, T/C [17] of 61.9% and a viability, T/C [18] of 48.5%. The viability, T/C [19] was 103%, the viability, T/C [20] was 107% and the viability, T/C [21] was 98.4%. The viability, T/C [22] was 110%, the viability, T/C [23] was 63.9% and the viability, T/C [24] was 45.6%. It also gave a viability, T/C [25] of 97.5%, a viability, T/C [26] of 98.1% and a viability, T/C [27] of 102%. For the same compound, the viability, T/C [28] was 103%, the viability, T/C [29] was 56.2% and the viability, T/C [30] was 42.1%. It also gave a viability, T/C [31] of 79.9%, a viability, T/C [32] of 85.1% and a viability, T/C [33] of 101%. The viability, T/C [34] was 99.5%, the viability, T/C [35] was 51.2% and the viability, T/C [36] was 37.2%.
`C#Cc1c(F)ccc2cc(O)cc(-c3ncc4c(N5CC6CCC(C5)N6)nc(OCC56CCCN5CC(F)C6)nc4c3F)c12` (stereo unspecified) + CN(C)c1ccc(Nc2c3ccc(NC(=O)CCN4CCCC4)cc3nc3cc(NC(=O)CCN4CCCC4)ccc23)cc1 showed an IC50 (second compound 0.0316 µM) of 5.27 µM, an IC50 (second compound 0.1 µM) of 7.47 µM and an IC50 (second compound 0.316 µM) of 2.45 µM. For the same compound, the IC50 (second compound 1 µM) was 4.57 µM, the IC50 (second compound 3.16 µM) was 1.57 µM and the IC50 (second compound 10 µM) was 1.71 µM. It also gave a viability, T/C [1] of 100%, a viability, T/C [2] of 93.3% and a viability, T/C [3] of 73.5%. The viability, T/C [4] was 73.8%, the viability, T/C [5] was 57.2% and the viability, T/C [6] was 40.8%. The viability, T/C [7] was 107%, the viability, T/C [8] was 102% and the viability, T/C [9] was 88.1%. The viability, T/C [10] was 66.3%, the viability, T/C [11] was 58.1% and the viability, T/C [12] was 46.6%. It also gave a viability, T/C [13] of 93.6%, a viability, T/C [14] of 83.9% and a viability, T/C [15] of 68.7%. For the same compound, the viability, T/C [16] was 57.1%, the viability, T/C [17] was 49.6% and the viability, T/C [18] was 38.6%. It also gave a viability, T/C [19] of 75.5%, a viability, T/C [20] of 82.8% and a viability, T/C [21] of 77.2%. It also gave a viability, T/C [22] of 61.3%, a viability, T/C [23] of 61.1% and a viability, T/C [24] of 34.1%. For the same compound, the viability, T/C [25] was 88.2%, the viability, T/C [26] was 81.6% and the viability, T/C [27] was 73.3%. For the same compound, the viability, T/C [28] was 51.3%, the viability, T/C [29] was 45.2% and the viability, T/C [30] was 31%. It also gave a viability, T/C [31] of 80.7%, a viability, T/C [32] of 86.6% and a viability, T/C [33] of 62.8%. For the same compound, the viability, T/C [34] was 56.3%, the viability, T/C [35] was 45% and the viability, T/C [36] was 19%.
`C=CC(=O)N1CCN(c2nc(=O)n(-c3c(C)ccnc3C(C)C)c3nc(-c4c(O)cccc4F)c(F)cc23)C(C)C1` (stereo unspecified) + Cc1[nH]c2ccc(F)cc2c1-c1nc2c3cccnc3c3ncccc3c2[nH]1 was tested, and the IC50 (second compound 0.0316 µM) was over 10 µM, the IC50 (second compound 0.1 µM) was over 10 µM and the IC50 (second compound 0.316 µM) was over 10 µM. For the same compound, the IC50 (second compound 1 µM) was over 10 µM, the IC50 (second compound 3.16 µM) was over 10 µM and the IC50 (second compound 10 µM) was over 10 µM. The viability, T/C [1] was 106%, the viability, T/C [2] was 91.6% and the viability, T/C [3] was 99.1%. The viability, T/C [4] was 108%, the viability, T/C [5] was 125% and the viability, T/C [6] was 117%. The viability, T/C [7] was 116%, the viability, T/C [8] was 93.8% and the viability, T/C [9] was 111%. The viability, T/C [10] was 116%, the viability, T/C [11] was 124% and the viability, T/C [12] was 114%. It also gave a viability, T/C [13] of 94.3%, a viability, T/C [14] of 107% and a viability, T/C [15] of 95.6%. It also gave a viability, T/C [16] of 112%, a viability, T/C [17] of 122% and a viability, T/C [18] of 108%. The viability, T/C [19] was 97.9%, the viability, T/C [20] was 97.6% and the viability, T/C [21] was 112%. The viability, T/C [22] was 118%, the viability, T/C [23] was 120% and the viability, T/C [24] was 114%. For the same compound, the viability, T/C [25] was 99.7%, the viability, T/C [26] was 86% and the viability, T/C [27] was 102%. The viability, T/C [28] was 109%, the viability, T/C [29] was 115% and the viability, T/C [30] was 114%. The viability, T/C [31] was 92%, the viability, T/C [32] was 80.6% and the viability, T/C [33] was 100%. It also gave a viability, T/C [34] of 106%, a viability, T/C [35] of 111% and a viability, T/C [36] of 114%.
